In series [1] the target is Phosphatidylinositol 4,5-bisphosphate 3-kinase catalytic subunit alpha isoform (Homo sapiens, UniProt P42336). Description: Inhibition of PI3K alpha by continuous TR-FRET assay.
Series [2] concerns the target T1, Phosphatidylinositol 4,5-bisphosphate 3-kinase catalytic subunit beta isoform (Homo sapiens, UniProt P42338). Description: Inhibition of PI3K beta by continuous TR-FRET assay.
The target of series [3] is T2, Phosphatidylinositol 4,5-bisphosphate 3-kinase catalytic subunit delta isoform (Homo sapiens, UniProt O00329).
T2 sequence (O00329 whole entry): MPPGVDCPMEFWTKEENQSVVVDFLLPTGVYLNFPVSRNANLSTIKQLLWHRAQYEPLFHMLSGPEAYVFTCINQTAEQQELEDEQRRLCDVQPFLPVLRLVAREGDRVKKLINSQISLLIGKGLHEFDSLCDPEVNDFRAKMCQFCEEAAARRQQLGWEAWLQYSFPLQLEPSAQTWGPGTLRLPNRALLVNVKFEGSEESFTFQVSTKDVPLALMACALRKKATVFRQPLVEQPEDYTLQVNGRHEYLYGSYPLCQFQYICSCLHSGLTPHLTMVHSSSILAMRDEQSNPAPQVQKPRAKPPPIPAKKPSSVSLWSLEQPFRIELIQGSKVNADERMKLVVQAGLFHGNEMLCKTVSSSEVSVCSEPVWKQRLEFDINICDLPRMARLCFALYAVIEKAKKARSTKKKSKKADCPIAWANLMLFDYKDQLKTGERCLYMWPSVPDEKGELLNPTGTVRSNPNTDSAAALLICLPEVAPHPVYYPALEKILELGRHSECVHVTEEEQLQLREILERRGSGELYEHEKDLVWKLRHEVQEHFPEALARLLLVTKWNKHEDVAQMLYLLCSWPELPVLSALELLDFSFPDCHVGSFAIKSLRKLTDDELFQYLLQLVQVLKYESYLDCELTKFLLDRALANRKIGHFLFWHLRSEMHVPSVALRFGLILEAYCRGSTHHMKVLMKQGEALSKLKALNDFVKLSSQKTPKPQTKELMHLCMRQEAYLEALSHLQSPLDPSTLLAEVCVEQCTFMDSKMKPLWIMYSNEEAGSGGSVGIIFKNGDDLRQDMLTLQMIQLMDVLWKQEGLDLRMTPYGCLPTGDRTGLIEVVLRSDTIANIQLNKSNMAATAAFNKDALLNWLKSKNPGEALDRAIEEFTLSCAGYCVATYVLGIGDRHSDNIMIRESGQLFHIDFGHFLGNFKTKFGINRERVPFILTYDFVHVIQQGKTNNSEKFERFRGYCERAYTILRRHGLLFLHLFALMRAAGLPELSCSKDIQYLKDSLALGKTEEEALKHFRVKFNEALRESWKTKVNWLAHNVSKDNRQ
Description: Inhibition of PI3K delta by continuous TR-FRET assay.

Series [4] concerns the target Phosphatidylinositol 4,5-bisphosphate 3-kinase catalytic subunit gamma isoform (Homo sapiens, UniProt P48736). Description: Inhibition of PI3K gamma by continuous TR-FRET assay.
Series [5] has as its target T1, Phosphatidylinositol 4,5-bisphosphate 3-kinase catalytic subunit beta isoform. Description: Inhibition of PI3K beta in human PTEN-deficient MDA-MB-468 cells assessed as inhibition of Akt Ser473 phosphorylation. The series is classed as cell-based.
Another series relates to MDA-MB-468. Description: Antiproliferative activity against PTEN-deficient human MDA-MB-468 cells. Format: functional.
A short description of series [6]: Half life in CD mouse at 0.3 mg/kg, iv. Format: ADME, organism-based. More on the design: dose 0.3 mg/kg, route intravenous. The settings on record: in vivo.
A short description of series [7]: Volume of distribution at steady state in CD mouse at 0.3 mg/kg, iv. The settings on record: in vivo, read-out: Vdss. Details: dose 0.3 mg/kg, route intravenous. The series is classed as ADME, organism-based.
The nature of series [8]: Clearance in CD mouse at 0.3 mg/kg, iv. The settings on record: in vivo. Format: ADME, organism-based. Details: dose 0.3 mg/kg, route intravenous.
For another series, the system named is Mus musculus. Description: Dose normalized AUC in CD mouse at 100 mg/kg, po. The series is classed as ADME, organism-based. Details: dose 100 mg/kg, route oral. The settings on record: in vivo.
Series [9] can be described thus: Oral bioavailability in CD mouse at 100 mg/kg. Format: ADME, organism-based. The settings on record: in vivo.

T1 sequence (P42338 whole entry, canonical isoform): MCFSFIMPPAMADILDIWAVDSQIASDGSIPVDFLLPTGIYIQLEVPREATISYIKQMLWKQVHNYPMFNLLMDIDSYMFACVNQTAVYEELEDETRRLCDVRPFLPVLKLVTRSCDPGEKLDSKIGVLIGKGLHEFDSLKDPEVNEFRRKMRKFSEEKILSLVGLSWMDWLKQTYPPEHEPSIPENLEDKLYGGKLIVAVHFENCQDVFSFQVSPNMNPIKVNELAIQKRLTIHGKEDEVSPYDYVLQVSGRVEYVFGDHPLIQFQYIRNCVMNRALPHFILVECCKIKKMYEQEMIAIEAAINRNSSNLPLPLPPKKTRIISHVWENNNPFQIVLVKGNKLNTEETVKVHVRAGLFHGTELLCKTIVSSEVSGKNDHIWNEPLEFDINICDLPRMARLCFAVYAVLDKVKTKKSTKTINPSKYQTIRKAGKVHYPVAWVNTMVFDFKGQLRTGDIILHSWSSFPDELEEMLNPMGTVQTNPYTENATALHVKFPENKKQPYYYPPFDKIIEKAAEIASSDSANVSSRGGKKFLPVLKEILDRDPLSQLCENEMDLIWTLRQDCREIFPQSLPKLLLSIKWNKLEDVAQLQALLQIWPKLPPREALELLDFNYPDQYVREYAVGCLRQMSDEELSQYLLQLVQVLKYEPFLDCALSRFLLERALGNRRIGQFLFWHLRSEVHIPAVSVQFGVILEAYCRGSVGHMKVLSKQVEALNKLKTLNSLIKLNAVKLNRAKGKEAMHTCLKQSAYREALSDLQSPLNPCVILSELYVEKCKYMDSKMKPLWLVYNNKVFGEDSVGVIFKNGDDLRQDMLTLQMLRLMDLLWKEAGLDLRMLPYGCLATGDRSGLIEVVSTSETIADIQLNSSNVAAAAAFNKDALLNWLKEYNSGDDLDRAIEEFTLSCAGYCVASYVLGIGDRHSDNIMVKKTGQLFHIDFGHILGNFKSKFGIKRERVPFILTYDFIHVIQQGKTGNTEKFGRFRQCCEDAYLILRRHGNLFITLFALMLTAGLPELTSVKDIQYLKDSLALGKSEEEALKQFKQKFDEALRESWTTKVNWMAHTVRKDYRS
Phosphatidylinositol 4,5-bisphosphate 3-kinase catalytic subunit alpha isoform, sequence (P42336 whole entry, canonical isoform): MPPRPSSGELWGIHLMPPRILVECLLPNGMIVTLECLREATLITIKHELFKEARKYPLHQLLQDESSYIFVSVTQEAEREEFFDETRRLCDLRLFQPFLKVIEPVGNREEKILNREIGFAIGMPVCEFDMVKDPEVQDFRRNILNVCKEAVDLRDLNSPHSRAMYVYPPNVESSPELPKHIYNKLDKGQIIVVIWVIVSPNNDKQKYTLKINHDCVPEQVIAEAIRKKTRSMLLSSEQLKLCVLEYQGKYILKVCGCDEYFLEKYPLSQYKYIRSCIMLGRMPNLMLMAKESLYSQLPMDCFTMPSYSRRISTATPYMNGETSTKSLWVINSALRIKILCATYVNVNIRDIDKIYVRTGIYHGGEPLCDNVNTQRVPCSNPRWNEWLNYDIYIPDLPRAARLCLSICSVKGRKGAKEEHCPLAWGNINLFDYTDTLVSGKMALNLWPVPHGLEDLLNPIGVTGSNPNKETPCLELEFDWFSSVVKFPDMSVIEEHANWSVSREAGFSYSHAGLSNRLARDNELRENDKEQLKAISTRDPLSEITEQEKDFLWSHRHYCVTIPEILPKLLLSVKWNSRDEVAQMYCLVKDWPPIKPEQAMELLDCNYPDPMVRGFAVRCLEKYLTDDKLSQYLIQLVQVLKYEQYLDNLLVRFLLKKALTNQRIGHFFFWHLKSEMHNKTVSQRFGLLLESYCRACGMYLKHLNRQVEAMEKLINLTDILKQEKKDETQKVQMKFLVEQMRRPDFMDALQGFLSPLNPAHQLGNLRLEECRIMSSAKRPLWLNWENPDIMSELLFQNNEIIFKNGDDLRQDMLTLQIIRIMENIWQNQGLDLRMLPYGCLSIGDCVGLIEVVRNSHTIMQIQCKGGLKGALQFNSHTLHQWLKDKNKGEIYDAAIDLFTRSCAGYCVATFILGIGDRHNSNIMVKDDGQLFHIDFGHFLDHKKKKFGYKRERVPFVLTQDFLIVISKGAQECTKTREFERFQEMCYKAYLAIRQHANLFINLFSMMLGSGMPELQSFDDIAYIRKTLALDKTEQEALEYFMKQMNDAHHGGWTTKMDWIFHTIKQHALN
Phosphatidylinositol 4,5-bisphosphate 3-kinase catalytic subunit gamma isoform, sequence (P48736 whole entry, canonical isoform): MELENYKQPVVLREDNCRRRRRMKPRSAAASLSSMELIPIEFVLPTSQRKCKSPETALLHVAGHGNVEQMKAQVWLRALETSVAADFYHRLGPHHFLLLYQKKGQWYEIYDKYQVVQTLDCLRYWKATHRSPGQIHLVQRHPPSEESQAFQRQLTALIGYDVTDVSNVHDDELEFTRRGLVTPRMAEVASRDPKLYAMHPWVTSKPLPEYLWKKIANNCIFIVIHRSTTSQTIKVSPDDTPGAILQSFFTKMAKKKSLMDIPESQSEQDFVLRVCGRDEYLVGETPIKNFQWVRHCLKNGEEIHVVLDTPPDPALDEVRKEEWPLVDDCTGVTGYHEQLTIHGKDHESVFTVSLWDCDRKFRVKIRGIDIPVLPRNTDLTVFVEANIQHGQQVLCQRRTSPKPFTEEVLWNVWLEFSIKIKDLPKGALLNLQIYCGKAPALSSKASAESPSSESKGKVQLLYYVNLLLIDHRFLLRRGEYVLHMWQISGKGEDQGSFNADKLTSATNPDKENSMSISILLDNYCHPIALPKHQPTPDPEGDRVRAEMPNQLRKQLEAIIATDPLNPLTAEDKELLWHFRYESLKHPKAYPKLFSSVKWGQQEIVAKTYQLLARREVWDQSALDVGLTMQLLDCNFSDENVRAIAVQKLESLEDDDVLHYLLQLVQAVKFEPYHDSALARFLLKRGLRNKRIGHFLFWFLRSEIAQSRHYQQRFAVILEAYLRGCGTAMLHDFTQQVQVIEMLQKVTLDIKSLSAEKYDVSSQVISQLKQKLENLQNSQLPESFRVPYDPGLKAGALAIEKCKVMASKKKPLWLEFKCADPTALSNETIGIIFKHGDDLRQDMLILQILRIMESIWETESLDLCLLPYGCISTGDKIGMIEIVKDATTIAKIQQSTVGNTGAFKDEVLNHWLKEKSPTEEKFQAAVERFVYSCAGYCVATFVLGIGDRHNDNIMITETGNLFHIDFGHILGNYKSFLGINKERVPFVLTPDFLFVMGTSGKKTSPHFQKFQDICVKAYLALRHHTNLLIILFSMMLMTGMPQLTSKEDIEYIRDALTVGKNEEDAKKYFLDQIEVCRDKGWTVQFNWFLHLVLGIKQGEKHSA

`O=c1ncn(Cc2ccsc2Cl)c2nc(N3CCOCC3)sc12`: the IC50 was found to be 3200 nM in [1], 790 nM in series [2], 2500 nM in [3] and 4000 nM in [4].
For `O=c1ncn(CCc2ccccc2)c2nc(N3CCOCC3)sc12` the same measures were over 2000 nM, 790 nM, 1000 nM and 3200 nM.
On the same counts, the results for `Cc1c(Cl)cccc1Cn1cnc(=O)c2sc(N3CCOCC3)nc21` are 2500 nM, 3 nM, 40 nM and 2500 nM.
With `Cc1c(Cn2cnc(=O)c3sc(N4CCOCC4)nc32)cccc1C(F)(F)F`, the IC50 in series [1] came to 4000 nM; in [2] it was 3 nM; in series [3] it was 63 nM; in [4] it was 1600 nM.
Turning to `CCc1nc(=O)c2sc(N3CCOCC3)nc2n1Cc1cccc(C(F)(F)F)c1C`, the IC50 in [1] is over 4000 nM; in series [2], 0.5 nM; in series [3], 13 nM; in series [4] it was 1300 nM. Further, the EC50 in series [5] came to 16 nM. This compound had a GI50 with MDA-MB-468 of 23 nM.
For the compound `O=c1ncn(Cc2ccccc2)c2nc(N3CCOCC3)sc12`, the IC50 in series [1] is 7900 nM; in series [2] it was 320 nM; in [3], 2000 nM; in series [4], 6300 nM.
Consider `Cc1c(Cl)cccc1Cn1c(CO)nc(=O)c2sc(N3CCOCC3)nc21`, for which the IC50 in [1] was 500 nM; in [2] it was 0.1 nM; in series [3], 2 nM; in [4], 250 nM. Also, in [5], the EC50 came out at 6 nM. The compound also returned a GI50 in the series on MDA-MB-468 of 8 nM. Besides, in [6], the half-life is 1.9 h. For the same compound, the Vd in series [7] was 3.35 L/kg. The compound also gave a clearance in series [8] of 29.4 mL/min/kg. In addition, the AUC/dose in the series with Mus musculus is given as 264 ng/(hr.mL.mg.kg). Besides, in [9], the bioavailability came out at 21%.
For `O=c1ncn(Cc2cccc(Cl)c2)c2nc(N3CCOCC3)sc12`, the IC50 in [1] was over 3200 nM; in series [2], 79 nM; in series [3], 320 nM; in series [4] it was over 790 nM.
On the same counts, the results for `Cc1c(Cn2c(CN)nc(=O)c3sc(N4CCOCC4)nc32)cccc1C(F)(F)F` are over 2500 nM, 3 nM, 160 nM and over 7900 nM.
On the same counts, the results for `Cc1c(Cn2c(-c3ccccc3)nc(=O)c3sc(N4CCOCC4)nc32)cccc1C(F)(F)F` are over 3200 nM, 50 nM, 500 nM and 4000 nM.
For `Cc1c(Cl)cccc1Cn1c(SCC(=O)O)nc(=O)c2sc(N3CCOCC3)nc21` the same measures were 400 nM, 0.05 nM, 2 nM and 160 nM.
As to `Cc1c(Cl)cccc1Cn1c(=S)[nH]c(=O)c2sc(N3CCOCC3)nc21`, the IC50 in [1] was 2000 nM; in [2], 5 nM; in [3], 50 nM; in [4], over 3200 nM.
`Cc1c(Cl)cccc1Cn1c(N)nc(=O)c2sc(N3CCOCC3)nc21`: the IC50 in [1] worked out at 250 nM; in [2] it was 0.2 nM; in series [3], 3 nM; in [4], 500 nM. Further, the 50% effective concentration (EC50) in [5] is 3 nM. Moreover, the GI50 with MDA-MB-468 was 26 nM.
On to `Cc1ccccc1Cn1cnc(=O)c2sc(N3CCOCC3)nc21`, for which the IC50 in series [1] worked out at 2500 nM; in series [2], 25 nM; in series [3], 250 nM; in series [4], 2500 nM.
On to `O=c1ncn(Cc2ccccc2Cl)c2nc(N3CCOCC3)sc12`, for which the IC50 in [1] is 2500 nM; in series [2] it was 160 nM; in [3], over 790 nM; in series [4], 7900 nM.
On to `Cc1c(Cn2c(CO)nc(=O)c3sc(N4CCOCC4)nc32)cccc1C(F)(F)F`, for which the IC50 amounted to 630 nM in series [1], 0.2 nM in series [2], 3 nM in [3] and 250 nM in series [4].
In the case of `O=c1ncn(Cc2cccc(Cl)c2Cl)c2nc(N3CCOCC3)sc12`, the IC50 stood at 1000 nM in series [1], 10 nM in series [2], 79 nM in [3] and 1300 nM in series [4].
On the same counts, the results for `Cc1c(Cn2c(Cc3ccccc3)nc(=O)c3sc(N4CCOCC4)nc32)cccc1C(F)(F)F` are 2500 nM, 3 nM, 63 nM and 2000 nM.
Turning to `CSc1nc(=O)c2sc(N3CCOCC3)nc2n1Cc1cccc(Cl)c1C`, the IC50 worked out at 2000 nM in [1], 0.3 nM in [2], 10 nM in [3] and 2500 nM in series [4].
For `CC(c1ccccc1)n1cnc(=O)c2sc(N3CCOCC3)nc21` (stereo not drawn) the same measures were over 4000 nM, 400 nM, 500 nM and 5000 nM.
Regarding `Cc1c(Cn2c(C3CC3)nc(=O)c3sc(N4CCOCC4)nc32)cccc1C(F)(F)F`, the IC50 came to 1300 nM in series [1], 0.5 nM in series [2], 16 nM in series [3] and 1000 nM in [4]. Further, the EC50 in series [5] came to 9 nM. Besides, the GI50 in the series with MDA-MB-468 worked out at 43 nM. In series [6], this compound had a half-life of 0.75 h. Besides, the Vd in series [7] came to 2.6 L/kg. For the same compound, in series [8], the clearance is 48.6 mL/min/kg. In addition, the AUC/dose with Mus musculus is reported as 192 ng/(hr.mL.mg.kg). For the same compound, the bioavailability in series [9] is 54%.
With `Cc1c(Cl)cccc1Cn1c(C)nc(=O)c2sc(N3CCOCC3)nc21`, the IC50 in series [1] worked out at 2000 nM; in series [2], 0.5 nM; in series [3] it was 10 nM; in series [4] it was 1000 nM. Moreover, the EC50 in series [5] was found to be 19 nM. Besides, the GI50 with MDA-MB-468 was 32 nM.
Consider `Cc1c(Cl)cccc1Cn1c(=O)[nH]c(=O)c2sc(N3CCOCC3)nc21`, for which the IC50 in series [1] was 50000 nM; in [2] it was 8 nM; in [3] it was 500 nM; in series [4] it was over 6300 nM.
With `COc1nc(=O)c2sc(N3CCOCC3)nc2n1Cc1cccc(Cl)c1C`, the IC50 in series [1] was 1600 nM; in [2], 0.3 nM; in series [3] it was 10 nM; in series [4], 400 nM. Besides, the EC50 in series [5] was 6 nM. This compound also gave a GI50 in the series on MDA-MB-468 of 21 nM.

These data come from ChEMBL document CHEMBL2086270, “Rational Design, Synthesis, and SAR of a Novel Thiazolopyrimidinone Series of Selective PI3K-beta Inhibitors” (ACS Med Chem Lett, 2012).
